Source: patent US20220226258A1, “COMPOSITIONS AND METHODS USING THYMOL AND/OR CARVACROL FOR INDUCTION OF AUTOPHAGY” (SOCIETE DES PRODUITS NESTLE S.A., priority 2019, published 2022)

Experiments:
zebrafish larvae = experiment: Autophagy reporter zebrafish line (LC3-ZsGreen punctae in skeletal muscle); format: in vivo; settings: 16 hours of treatment, LC3 punctae with and without ammonium chloride, FIG. 2
Protocol: After 16 hours of treatment larvae were anesthetized with 0.016% tricaine and imaged with ImageXpress confocal system at 20× magnification (Molecular Devices). Z stack images were captured for each larva and maximal projection images were produced. Ammonium chloride was added for additional 4 hours to block lysosomal degradation. Images were acquired again as before. In order to quantify autophagic flux, number of LC3 punctae have been calculated in presence and in absence of ammonium chloride with MetaXpress software (Molecular Devices) and normalized by zebrafish area.

[1] = test system: liver steatosis in obese mice; experiment: Chronic treatment on a model of obesity (high fat diet), liver Oil Red O staining; format: in vivo; settings: thymol 20 mg/kg/day for 8 weeks, FIG. 4
Protocol: Mice were fed with high fat diet (Research Diets D12492: 60% fat, 20% protein, 20% carbohydrates) for 8 weeks. Mice were sacrificed by isofluorane inhalation followed by exsanguination. Livers were collected, embedded in OCT and frozen in isopentane. In order to visualize lipid droplets, liver sections of 10 μm were cut and stained by Oil Red O. Lipids size was calculated using imageJ software

human Jurkat cells = experiment: Autophagic flux (LC3-II, flow cytometry) in Jurkat cells; format: cell-based; settings: thymol 1.95 to 250 μM, LC3-II median fluorescence intensity, FIG. 1
Protocol: The human lymphocytic T cell line Jurkat (clone E6.1, ATCC TIB-152) has been used to measure autophagic flux in vitro. Cells were grown in RPMI medium with standard conditions (5% CO2, 37° C.) in a humidified atmosphere. For the experiment, cells were washed, counted and incubated at 1*105/well in duplicate in a 96-flat bottom well plate. Experimental conditions included negative controls (0.5% DMSO), rapamycin treatment as positive control (1 uM) and Earle's Balanced Salt Solution (EBSS) as a starvation medium. Cells received Thymol (in RPMI) at different concentrations ranging from 1.95 μM to 250 μM. In parallel, the same experimental conditions were prepared for the incubation with solution A, from the Flow Cellect Autophagy Kit from Merck, now Guava Autophagy LC3 antibody-based kit. The treatment with compound A blocks the lysosomal degradation of LC3 vesicles and is used to measure autophagic flux. Cells were incubated with thymol at 37° for 1.30 h. Solution A was added for additional 30 minutes. Cells were then transferred in a 96 V bottom plate for the LC3 antibody detection using the Guava Autophagy LC3 antibody-based kit, according the manufacturer's instructions. […] Offline analysis was performed with FCS Express Software and results were expressed as the median fluorescence intensity in the FITC channel (related to the amount of LC3-II present in the cells.)

In the case of `Cc1ccc(C(C)C)c(O)c1` [thymol], the “concentration from which thymol induced autophagy in a dose dependent manner” value (zebrafish larvae) is reported as ≥ 50 µM, the liver steatosis [1] is reported as “reduction of liver steatosis” and the “concentration from which thymol induced autophagy in a dose dependent manner” value (human Jurkat cells) is reported as ≥ 125 µM.
